In patent US20170190671A1, “BIS(ARYL)CATECHOL DERIVATIVES AS HERBICIDES” (E I DU PONT DE NEMOURS AND COMPANY, priority 2014, published 2017):

What was measured:
[1] = test system: giant foxtail (Setaria faberii); assay: Test E preemergence; type: in vivo; settings: scale 0 to 100
In short: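 Test chemicals, formulated in a non-phytotoxic solvent with surfactant, are applied to silt loam soil after sowing or sprayed over young plants (1–4 leaves) in potting medium. Plants are then kept in a greenhouse for 14 to 21 days and scored 0–100 for control.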

[2] = test system: yellow nutsedge (Cyperus esculentus); assay: Test C preemergence; type: in vivo; settings: Cyperus, pre-emergence, 336 h, scale 0 to 100, read-out: Plant response rating, Nutsedge, Yellow
In short: (§1)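 Greenhouse test; preemergence to seeds in loam/sand soil, or postemergence spray to 2-18 cm, 1- to 4-leaf plants in peat/vermiculite medium; compound in non-phytotoxic solvent plus surfactant. Visual rating vs controls at 13-15 d, 0 = no effect, 100 = complete control.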

[3] = test system: soybean (Glycine max); assay: Test C preemergence; type: in vivo; settings: Glycine max, pre-emergence, scale 0 to 100, read-out: Plant response rating, Soybean
In short: as §1

[4] = test system: Italian ryegrass (Lolium multiflorum); assay: Test C preemergence; type: in vivo; settings: Lolium multiflorum, pre-emergence, 336 h, scale 0 to 100, read-out: Plant response rating, Ryegrass, Italian
In short: as §1

[5] = test system: morningglory (Ipomoea coccinea); assay: Test C preemergence; type: in vivo; settings: Ipomoea, pre-emergence, 336 h, scale 0 to 100, read-out: Plant response rating, Morningglory
In short: as §1

[6] = test system: lambsquarters (Chenopodium album); assay: Test C preemergence; type: in vivo; settings: Chenopodium album, pre-emergence, 336 h, scale 0 to 100, read-out: Plant response rating, Lambsquarters
In short: as §1

[7] = test system: johnsongrass (Sorghum halepense); assay: Test C preemergence; type: in vivo; settings: Sorghum halepense, pre-emergence, 336 h, scale 0 to 100, read-out: Plant response rating, Johnsongrass
In short: as §1

[8] = test system: galium (catchweed bedstraw, Galium aparine); assay: Test C preemergence; type: in vivo; settings: Galium, pre-emergence, 336 h, scale 0 to 100, read-out: Plant response rating, Galium
In short: as §1

[9] = test system: velvetleaf (Abutilon theophrasti); assay: Test C preemergence; type: in vivo; settings: Abutilon theophrasti, pre-emergence, scale 0 to 100, read-out: Plant response rating, Velvetleaf
In short: as §1

[10] = test system: waterhemp (common waterhemp, Amaranthus rudis); assay: Test C preemergence; type: in vivo; settings: Amaranthus tuberculatus, pre-emergence, scale 0 to 100, read-out: Plant response rating, Waterhemp
In short: as §1

[11] = test system: ragweed (common ragweed, Ambrosia elatior); assay: Test C preemergence; type: in vivo; settings: Ambrosia artemisiifolia, pre-emergence, 336 h, scale 0 to 100, read-out: Plant response rating, Ragweed
In short: as §1

[12] = test system: barnyardgrass (Echinochloa crus-galli); assay: Test C preemergence; type: in vivo; settings: Echinochloa crus-galli, pre-emergence, read-out: Plant response rating, Barnyardgrass
In short: as §1

[13] = test system: corn (Zea mays); assay: Test C preemergence; type: in vivo; settings: Zea mays, pre-emergence, 336 h, scale 0 to 100
In short: as §1

[14] = test system: blackgrass (Alopecurus myosuroides); assay: Test C preemergence; type: in vivo; settings: Alopecurus myosuroides, pre-emergence, 336 h, scale 0 to 100, read-out: Plant response rating, Blackgrass
In short: as §1

[15] = test system: pigweed (Amaranthus retroflexus); assay: Test C preemergence; type: in vivo; settings: Amaranthus retroflexus, pre-emergence, 336 h, scale 0 to 100, read-out: Plant response rating, Pigweed
In short: as §1

Work on `FC(F)c1cnc(Oc2c(Br)cccc2Oc2ncc(Cl)cn2)s1` [Compound 10, 2-[3-bromo-2-[[5-(difluoromethyl)-2-thiazolyl]oxy]phenoxy]-5-chloropyrimidine] yielded a melting point of 113 to 116 °C.
`Fc1ccc(F)c(Oc2ncc(Br)cn2)c1Oc1ncc(Br)cn1` [Compound 31] gave a melting point of 166 to 170 °C.
`N#Cc1cccc(Oc2ncc(Cl)cn2)c1Oc1ccc(Cl)cc1` [Compound 36] showed a melting point of 172 to 175 °C.
With `N#Cc1cccc(Oc2ncc(Cl)cn2)c1Oc1cccc(Cl)c1` [Compound 37] the melting point was 122 to 126 °C.
`N#Cc1cccc(Oc2ncc(Cl)cn2)c1Oc1ccccc1Cl` [Compound 40] showed a melting point of 120 to 123 °C.
In the case of `Fc1cccc(Oc2ncc(Cl)cn2)c1Oc1ncc(C(F)(F)F)cn1` [Compound 43, 5-chloro-2-[5-fluoro-6-[[5-(trifluoromethyl)-2-pyrimidinyl]oxy]phenoxy]pyrimidine], the “Plant response rating, Foxtail, Giant” value ([1]; 31 g ai/ha) is reported as 85, the “Plant response rating, Foxtail, Giant” value ([1]; 125 g ai/ha) is reported as 100 and the pest or weed control at 31 g/ha ([2]; 31 g ai/ha, preemergence) is reported as 0%. It also gave a pest or weed control at 62 g/ha ([2]; 62 g ai/ha, preemergence) of 35%, a pest or weed control at 125 g/ha ([2]; 125 g ai/ha, preemergence) of 60% and a pest or weed control at 16 g/ha ([2]; Preemergence, 16 g ai/ha) of 100%. The plant injury at 31 g/ha ([3]; 31 g ai/ha, preemergence) was 45%, the plant injury at 62 g/ha ([3]; 62 g ai/ha, preemergence) was 75% and the plant injury at 125 g/ha ([3]; 125 g ai/ha, preemergence) was 90%. The plant injury at 16 g/ha ([3]; Preemergence, 16 g ai/ha) was 30%, the pest or weed control at 31 g/ha ([4]; 31 g ai/ha, preemergence) was 50% and the pest or weed control at 62 g/ha ([4]; 62 g ai/ha, preemergence) was 85%. The pest or weed control at 125 g/ha ([4]; 125 g ai/ha, preemergence) was 95%, the pest or weed control at 16 g/ha ([4]; Preemergence, 16 g ai/ha) was 5% and the pest or weed control at 31 g/ha ([5]; 31 g ai/ha, preemergence) was 85%. For the same molecule, the pest or weed control at 62 g/ha ([5]; 62 g ai/ha, preemergence) was 100%, the pest or weed control at 125 g/ha ([5]; 125 g ai/ha, preemergence) was 100% and the pest or weed control at 16 g/ha ([5]; Preemergence, 16 g ai/ha) was 70%. It also gave a pest or weed control at 31 g/ha ([6]; 31 g ai/ha, preemergence) of 100%, a pest or weed control at 62 g/ha ([6]; 62 g ai/ha, preemergence) of 100% and a pest or weed control at 125 g/ha ([6]; 125 g ai/ha, preemergence) of 100%. It also gave a pest or weed control at 16 g/ha ([6]; Preemergence, 16 g ai/ha) of 100%, a pest or weed control at 31 g/ha ([7]; 31 g ai/ha, preemergence) of 75% and a pest or weed control at 62 g/ha ([7]; 62 g ai/ha, preemergence) of 100%. The pest or weed control at 125 g/ha ([7]; 125 g ai/ha, preemergence) was 100%, the pest or weed control at 16 g/ha ([7]; Preemergence, 16 g ai/ha) was 20% and the pest or weed control at 31 g/ha ([8]; 31 g ai/ha, preemergence) was 95%. For the same molecule, the pest or weed control at 62 g/ha ([8]; 62 g ai/ha, preemergence) was 100%, the pest or weed control at 125 g/ha ([8]; 125 g ai/ha, preemergence) was 100% and the pest or weed control at 16 g/ha ([8]; Preemergence, 16 g ai/ha) was 95%. The pest or weed control at 31 g/ha ([9]; 31 g ai/ha, preemergence) was 100%, the pest or weed control at 62 g/ha ([9]; 62 g ai/ha, preemergence) was 100% and the pest or weed control at 125 g/ha ([9]; 125 g ai/ha, preemergence) was 100%. The pest or weed control at 16 g/ha ([9]; Preemergence, 16 g ai/ha) was 100%, the pest or weed control at 31 g/ha ([10]; 31 g ai/ha, preemergence) was 100% and the pest or weed control at 62 g/ha ([10]; 62 g ai/ha, preemergence) was 100%. The pest or weed control at 125 g/ha ([10]; 125 g ai/ha, preemergence) was 100%, the pest or weed control at 16 g/ha ([10]; Preemergence, 16 g ai/ha) was 85% and the pest or weed control at 31 g/ha ([11]; 31 g ai/ha, preemergence) was 80%. It also gave a pest or weed control at 62 g/ha ([11]; 62 g ai/ha, preemergence) of 100%, a pest or weed control at 125 g/ha ([11]; 125 g ai/ha, preemergence) of 90% and a pest or weed control at 16 g/ha ([11]; Preemergence, 16 g ai/ha) of 35%. For the same molecule, the pest or weed control at 31 g/ha ([12]; 31 g ai/ha, preemergence, scale 0 to 100) was 85%, the pest or weed control at 62 g/ha ([12]; 62 g ai/ha, preemergence, scale 0 to 100) was 100% and the pest or weed control at 125 g/ha ([12]; 125 g ai/ha, preemergence, scale 0 to 100) was 100%. The pest or weed control at 16 g/ha ([12]; Preemergence, 16 g ai/ha, scale 0 to 100 (0 no effect, 100 complete control)) was 60%, the Corn plant response rating (crop injury, 0 = no effect, 100 = complete kill) at 31 g/ha ([13]; 31 g ai/ha, preemergence) was 20% and the Corn plant response rating (crop injury, 0 = no effect, 100 = complete kill) at 62 g/ha ([13]; 62 g ai/ha, preemergence) was 65%. The Corn plant response rating (crop injury, 0 = no effect, 100 = complete kill) at 125 g/ha ([13]; 125 g ai/ha, preemergence) was 90%, the Corn plant response rating (crop injury, 0 = no effect, 100 = complete kill) at 16 g/ha ([13]; Preemergence, 16 g ai/ha) was 20% and the pest or weed control at 31 g/ha ([14]; 31 g ai/ha, preemergence) was 50%. For the same molecule, the pest or weed control at 62 g/ha ([14]; 62 g ai/ha, preemergence) was 90%, the pest or weed control at 125 g/ha ([14]; 125 g ai/ha, preemergence) was 95% and the pest or weed control at 16 g/ha ([14]; Preemergence, 16 g ai/ha) was 40%. The pest or weed control at 31 g/ha ([15]; 31 g ai/ha, preemergence) was 100%, the pest or weed control at 62 g/ha ([15]; 62 g ai/ha, preemergence) was 100% and the pest or weed control at 125 g/ha ([15]; 125 g ai/ha, preemergence) was 100%. For the same molecule, the pest or weed control at 16 g/ha ([15]; Preemergence, 16 g ai/ha) was 100%.
